{"source": "patent US20210024499A1", "about": "“OXIDIZED BIS(3-INDOLYL)METHANES AND USES THEREOF” (Sanford Burnam Prebys Medical Discovery Institute, priority 2018, published 2021)", "key": {"[1]": {"system": "non-transfected HEK293T cells", "experiment": "Apoptosis in non-transfected HEK293T cells (confocal microscopy)", "format": "cell-based", "description": "The ligand-binding domain (LBD) of Nur77, Nur77-LBD, was transfected into HEK293T cells. Transfection of Nur77-LBD enhanced the apoptotic effect of Compound 1, with 36% of the transfected HEK293T cells undergoing apoptosis, while 4.5% of the non-transfected cells were apoptotic, as measured by confocal microscopy."}, "Nur77 [2]": {"target": "T1, Nur77 (Homo sapiens, UniProt P22736)", "T1 construct": "expressed in transfected cells", "experiment": "Cellular fractionation and immunostaining: mitochondrial targeting of Nur77", "format": "cell-based", "experimental": "(§1) For cellular fractionation, cells were lysed in cold buffer A (10 mM HEPES-KOH (pH 7.9), 1.5 mM MgCl2, 10 mM KCl, 0.5 mM dithiothreitol) with a cocktail of proteinase inhibitors on ice for 10 min as described. Cytoplasmic fraction was collected by centrifuging at 6000 rpm for 30 seconds. Pellets containing nuclei were resuspended in cold high-salt buffer C (20 mM HEPES-KOH (pH 7.9), 25% glycerol, 420 mM NaCl, 1.5 mM MgCl2, 0.2 mM EDTA, 0.5 mM dithiothreitol) with a cocktail of proteinase inhibitors on ice for 30 minutes."}, "Nur77 [3]": {"system": "Nur77", "experiment": "Cellular fractionation and immunostaining: mitochondrial targeting of Nur77", "format": "cell-based", "experimental": "as §1"}, "MEFs": {"system": "MEFs", "experiment": "DAPI staining for apoptosis, MEFs", "format": "cell-based, mouse", "details": "0.5 μM", "description": "The apoptotic effect of Compound 1 was also examined in mouse embryonic fibroblast (MEF) and MEF lacking Bcl-2 (Bcl-2^−/−MEF). […] Apoptotic cells were counted in 200 cells."}, "HeLa cells [4]": {"system": "HeLa cells", "experiment": "Mitochondrial membrane potential (JC1), HeLa", "format": "cell-based", "details": "6 h", "experimental": "(§2) Loss of mitochondrial membrane potential (Avm) represents one of the hallmarks of apoptosis. A JC-1 probe was employed to measure mitochondrial depolarization in cancer cells. MDA-MB-231 breast cancer cells were treated with different concentration of test compounds for 6 hours. JC-1 staining solution (5 μg/ml) was added at 37° C. for 20 min. After washing with PBS twice, mitochondrial membrane potentials were monitored by determining the relative amounts of dual emission from a multiple fluorescence reader. The fluorescence in cells was quantitatively analyzed by flow cytometry. Mitochondrial depolarization is depicted by an increase in the green/red fluorescence intensity ratio. ROS were monitored with the oxiadtion-senstive fluorescent probe 2′7′-dichlorodihydroflurescenin diacetate (DCF-DA).\n(§3) Furthermore, Nur77^−/−HeLa cells were more resistant than the parental HeLa cells to Compound 1 in its induction of the mitochondrial membrane potential loss measured by JC1 staining and in the release of mitochondrial ROS (as performed in Example A-12).\n(§4) In addition, Bcl-2^−/−HeLa cells were more resistant than the parental HeLa cells to Compound 1 in its induction of the mitochondrial membrane potential loss measured by JC1 staining and in the release of mitochondrial ROS (as performed in Example A-12)."}, "HCT116 cells": {"system": "HCT116 cells", "experiment": "PARP cleavage assay (Western blotting), HCT116", "format": "cell-based", "details": "6 hours", "description": "(§5) Compound 1a had no effect under the same conditions (FIG. 1A). […] Compound 1a, 28a, 47a, 48a, 73a, 39a, 70a, 103a, 89a and 88a had no effect under the same conditions (FIG. 3B-C)."}, "HeLa cells [5]": {"system": "HeLa cells", "experiment": "PARP cleavage assay (Western blotting), HeLa", "format": "cell-based", "details": "6 hours", "description": "as §5"}, "Nur77−/−HeLa cells": {"system": "Nur77−/−HeLa cells", "experiment": "Annexin V/PI staining, Nur77 knockout HeLa", "format": "cell-based", "experimental": "Knocking out Nur77 and Bcl-2 from HeLa cells employed the CRISPR/Cas9 system. gRNA targeting sequence of Nur77 (5′-[…]-3′) and Bcl-2 (5′-[…]-3′) was cloned into gRNA cloning vector Px330 (Addgene, 71707) and confirmed by sequencing. To screen for cells lacking Nur77 or Bcl-2, HeLa cells were transfected with control vector and gRNA expression vectors, followed by G418 selection (0.5mg/m1). Single colonies were subjected to Western blotting using anti-Nur77 and anti-Bcl-2 antibody to select knockout cells.\nThe apoptotic effect of Compound lwas also evaluated in Nur77 genome knockout HeLa cells generated by CRISPR/Cas9 technology (Example A-5)."}, "MDA-MB-231 cells": {"system": "MDA-MB-231 cells", "experiment": "Caspase 3 cleavage assay (Western blotting)", "format": "cell-based", "details": "6 hours, Western blotting (FIG. 2)"}, "[6]": {"system": "breast cancer cell lines (MDA-MB-231, BT549, HCC 1937, ZR-75-1, T47D, MCF-7)", "experiment": "Cell viability (MTT) in various breast cancer cell lines", "format": "cell-based", "details": "24 hours, FIG. 1E; regardless of hormone dependency", "experimental": "Cell viability was analyzed by using a colorimetric 3-(4,5-dimethylthiazol-[…]2-yl)-2,5-diphenyletetrazolium Bromide (MTT) assay that determines mitochondrial dehydrogenase activities in the living cells with a colorimetric method. Cells treated with test compounds were incubated with MTT and their effect on the viability of the cells was assayed by the ability of treated cells to reduce the yellow tetrazolium dye MTT to its insoluble formazan, which has a purple color.\nCompound 1 was effective in various breast cancer cell lines analyzed regardless of its hormone dependency, including MDA-MB-231 cells, BT549 cells, HCC 1937 cells, ZR-75-1 cells, T47D cells, and MCF-7 cells (FIG. 1E)."}, "parental HeLa cells": {"system": "parental HeLa cells", "experiment": "Annexin V/PI staining, parental HeLa", "format": "cell-based", "details": "methanesulfonate"}, "HeLa cells [7]": {"system": "HeLa cells", "experiment": "DAPI staining for apoptosis, HeLa", "format": "cell-based", "experimental": "In HeLa cells, about 60% apoptotic cells were detected when cells were treated with Compound 1 compared to less than 5% when cells were not treated with Compound 1. Apoptotic cells were counted in 200 cells.\nWe next examined whether Nur77 mitochondrial targeting induced by the combination of Compound 1/B12030 was apoptotic. HeLa cells were treated with either Compound 1 or BI2030 alone or in combination and apoptosis was examined by DAPI staining. About 7.2% or 9.1% of cells were apoptotic when treated with 0.5 μM Compound 1 or 1 μM BI2030, respectively, for 2 hours. […] Apoptotic cells were counted in 200 cells."}, "Nur77−/− HeLa cells": {"system": "Nur77−/− HeLa cells", "experiment": "Mitochondrial ROS, Nur77 knockout HeLa", "format": "cell-based", "experimental": "as §2, §3"}, "Bcl-2−/−HeLa cells": {"system": "Bcl-2−/−HeLa cells", "experiment": "Mitochondrial membrane potential (JC1), Bcl-2 knockout HeLa", "format": "cell-based", "details": "0.5 μM, 6 h", "experimental": "as §2, §4"}}, "note": "“And” between values parts separate entries of the source, which are not always exact repeats. Equal entries are not always repeated.", "data": [{"smiles": "FC(F)(F)c1ccc([C+](c2c[nH]c3ccccc23)c2c[nH]c3ccccc23)cc1", "note": "[Compound 1, Bis(1H-indol-3-yl)(4-(trifluoromethyl)phenyl)methylium methanesulfonate]", "values": [{"measurement": "apoptotic cells", "setting": "[1]", "value": 4.5, "unit": "%"}, {"measurement": "transfected GFP-Nur77 in heavy membrane (HM) fraction", "setting": "Nur77 [2]; cellular fractionation", "value": "accumulated in the mitochondria-enriched heavy membrane (HM) fraction"}, {"measurement": "Myc-Nur77 in heavy membrane (HM) fraction", "setting": "Nur77 [2]; mitochondria fractionation, 1μM", "value": "accumulated in the mitochondria-enriched heavy membrane (HM) fraction"}, {"measurement": "transfected GFP-Nur77-LBD colocalization with Hsp60", "setting": "Nur77 [3]; confocal microscopy and cellular fractionation", "value": "colocalized extensively with the mitochondria-specific Hsp60 protein"}, {"measurement": "Myc-Nur77-LBD colocalization with mitochondria", "setting": "Nur77 [3]; immunostaining", "value": "colocalized extensively with the mitochondria"}, {"measurement": "cells with chromatin condensation and nuclear fragmentation (DAPI)", "setting": "MEFs", "value": 40, "unit": "%"}, {"measurement": "JC1 green to red ratio (control 100%)", "setting": "HeLa cells [4]; 0.5 μM", "value": 195, "unit": "%"}, {"measurement": "JC1 green to red ratio (control 100%)", "setting": "HeLa cells [4]; 1 μM", "value": 190, "unit": "%"}, {"measurement": "PARP cleavage", "setting": "HCT116 cells; 0.5 μM, Western blotting", "value": "effectively induced PARP cleavage"}, {"measurement": "concentration inducing PARP cleavage (dose dependent study)", "setting": "HCT116 cells", "value": "submicromolar concentrations"}, {"measurement": "concentration inducing PARP cleavage (dose dependent study)", "setting": "HeLa cells [5]", "value": "submicromolar concentrations"}, {"measurement": "apoptotic effect (Annexin V/PI staining)", "setting": "Nur77−/−HeLa cells", "value": 3.25, "unit": "%"}, {"measurement": "caspase 3 cleavage", "setting": "MDA-MB-231 cells", "value": "dose dependent induction of caspase 3 cleavage"}, {"measurement": "cell viability (MTT)", "setting": "[6]", "value": "effective"}, {"measurement": "apoptotic effect (Annexin V/PI staining)", "setting": "parental HeLa cells", "value": "35.55% and 24.59%"}, {"measurement": "apoptotic cells (DAPI staining), single agent", "setting": "HeLa cells [7]; 0.5 μM Compound 1 or 1 μM BI2030, 2 hours", "value": "About 7.2%"}, {"measurement": "apoptotic cells (DAPI staining)", "setting": "HeLa cells [7]; 0.5 μM, 6 hours, counted in 200 cells", "value": "about 60%"}, {"measurement": "apoptotic cells (DAPI staining), co-treated with Compound 1 and BI2030", "setting": "HeLa cells [7]; co-treatment with BI2030, 2 hours", "value": "about 35.5%"}, {"measurement": "increase in mito-ROS relative to regular HeLa cells", "setting": "Nur77−/− HeLa cells", "value": "smaller increase"}, {"measurement": "JC1 green to red ratio", "setting": "Bcl-2−/−HeLa cells", "value": "no change"}]}]}
